According to US10517889B2, “Modulators of SMAD7 expression” (Ionis Pharmaceuticals, Inc., priority 2017, dated 2019):
Strand notation (5' to 3'): a small letter for the sugar, then the base; units joined by * are phosphorothioate-linked, units joined directly phosphodiester-linked; [ ] holds rarer units or linkages, { } end groups; capitals alone tell only the bases. k = constrained ethyl (cEt); [5mC] = 5-methylcytosine; d = 2'-deoxy (DNA)

What was measured:
human SMAD7 mRNA [1] = assay: Antisense inhibition of human SMAD7 mRNA expression in Hep3B cells by 3-10-3 cEt gapmers, 10,000 nM, electroporation (Example 2); type: cell-based; details: approximately 24 hours
Summary of the method: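 Hep3B, 20,000 cells/well; electroporation, 10,000 nM ASO; ~24 h. Readout: SMAD7 mRNA by qRT-PCR (RTS5062), RIBOGREEN-normalised; % inhibition vs untreated.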

human SMAD7 mRNA [2] = assay: Dose-dependent inhibition of human SMAD7 mRNA expression in Hep3B cells (Example 3, Study 1 and 2); type: cell-based; details: electroporation; for % inhibition of SMAD7 mRNA expression: approximately 16 hours; for IC50: Study 2 (740-20000 nM)
Description: The antisense oligonucleotides were tested in a series of experiments that had similar culture conditions as described below.
(§1) Cells were plated at a density of 20,000 cells per well and transfected using electroporation with 0.31 μM, 1.25 μM, 5.00 μM, or 20.00 μM concentrations of antisense oligonucleotide, as specified in the Tables below. ION 483663 was included in the assays for comparison. After a treatment period of approximately 16 hours, RNA was isolated from the cells and SMAD7 mRNA levels were measured by quantitative real-time PCR. Primer probe set RTS5062 was used to measure human SMAD7 mRNA levels. SMAD7 mRNA levels were adjusted according to total RNA content, as measured by RIBOGREEN®. Results are presented as percent inhibition of SMAD7 mRNA expression, relative to untreated control cells.
The half maximal inhibitory concentration (IC50) of each oligonucleotide is also presented.
as §1, with “0.74” for “0.31”, “2.22” for “1.25”, “6.67” for “5.00”, “below.” for “below. ION 483663 was included in the assays for comparison.”

[3] = Hep3B cells, electroporation with 10,000 nM antisense oligonucleotide, SMAD7 mRNA by RT-PCR (RTS5062), relative to untreated control cells
[4] = 740 nM, Study 2, relative to untreated control cells
[5] = Hep3B cells, electroporation with 10,000 nM antisense oligonucleotide, RTS5062, percent inhibition of SMAD7 mRNA relative to untreated control cells

Substance: 830100 (kG*kG*kA*dG*d[5mC]*dT*d[5mC]*dA*dA*dA*d[5mC]*dT*dT*kT*kG*kA; antisense) [compound 830100]
- % Inhibition (human SMAD7 mRNA [1]; [3]): 61%
- % inhibition of SMAD7 mRNA expression (human SMAD7 mRNA [2]; [4]): 3%
- % inhibition of SMAD7 mRNA expression (human SMAD7 mRNA [2]; 2220 nM, Study 2): 8%
- % inhibition of SMAD7 mRNA expression (human SMAD7 mRNA [2]; 6670.0 nM, Study 2): 38%
- % inhibition of SMAD7 mRNA expression (human SMAD7 mRNA [2]; 20000.0 nM, Study 2): 69%
- IC50 (human SMAD7 mRNA [2]): 2000 nM

Substance: 799511 (antisense kT*kA*kA*dT*dG*dA*d[5mC]*dA*dA*dT*dT*d[5mC]*d[5mC]*kA*kG*k[5mC]) [compound 799511]
- % Inhibition (human SMAD7 mRNA [1]; [3]): 65%
- % inhibition of SMAD7 mRNA expression (human SMAD7 mRNA [2]; [4]): 0%
- % inhibition of SMAD7 mRNA expression (human SMAD7 mRNA [2]; 2220 nM, Study 2): 0%
- % inhibition of SMAD7 mRNA expression (human SMAD7 mRNA [2]; 6670.0 nM, Study 2): 35%
- % inhibition of SMAD7 mRNA expression (human SMAD7 mRNA [2]; 20000.0 nM, Study 2): 65%
- IC50 (human SMAD7 mRNA [2]): 3000 nM

Substance: 799686 (antisense kG*kA*kG*dA*dT*dT*dT*dT*dA*dA*dA*dT*dG*k[5mC]*kT*kG) [compound 799686]
- % Inhibition (human SMAD7 mRNA [1]; [5]): 62%
- % inhibition of SMAD7 mRNA expression (human SMAD7 mRNA [2]; [4]): 18%
- % inhibition of SMAD7 mRNA expression (human SMAD7 mRNA [2]; 2220 nM, Study 2): 35%
- % inhibition of SMAD7 mRNA expression (human SMAD7 mRNA [2]; 6670.0 nM, Study 2): 36%
- % inhibition of SMAD7 mRNA expression (human SMAD7 mRNA [2]; 20000.0 nM, Study 2): 56%
- IC50 (human SMAD7 mRNA [2]): 2000 nM

Substance: 790636 (kA*kG*k[5mC]*dA*dT*d[5mC]*dT*dG*dG*dA*d[5mC]*dA*dG*kT*k[5mC]*kA; antisense) [compound 790636]
- % inhibition of SMAD7 mRNA expression (human SMAD7 mRNA [1]; Hep3B cells, electroporation, 10,000 nM, 3-10-3 cEt gapmers targeting SEQ ID NO: 3 and 4): 95%
- % inhibition of SMAD7 mRNA expression (human SMAD7 mRNA [2]; [4]): 89%
- % inhibition of SMAD7 mRNA expression (human SMAD7 mRNA [2]; 2220 nM, Study 2): 93%
- % inhibition of SMAD7 mRNA expression (human SMAD7 mRNA [2]; 6670.0 nM, Study 2): 95%
- % inhibition of SMAD7 mRNA expression (human SMAD7 mRNA [2]; 20000.0 nM, Study 2): 99%
- IC50 (human SMAD7 mRNA [2]): < 700 nM

Substance: 799671 (antisense kA*kG*kG*dT*dA*dT*dT*dT*dT*dT*dG*dA*dA*kG*kG*k[5mC]) [compound 799671]
- % Inhibition (human SMAD7 mRNA [1]; [5]): 59%
- % inhibition of SMAD7 mRNA expression (human SMAD7 mRNA [2]; [4]): 22%
- % inhibition of SMAD7 mRNA expression (human SMAD7 mRNA [2]; 2220 nM, Study 2): 56%
- % inhibition of SMAD7 mRNA expression (human SMAD7 mRNA [2]; 6670.0 nM, Study 2): 71%
- % inhibition of SMAD7 mRNA expression (human SMAD7 mRNA [2]; 20000.0 nM, Study 2): 74%
- IC50 (human SMAD7 mRNA [2]): 2000 nM

Substance: 798931 (antisense kG*kA*kG*dG*dA*dA*dA*dA*dT*dA*dT*dT*dA*kG*k[5mC]*kA) [compound 798931]
- % Inhibition (human SMAD7 mRNA [1]; Hep3B cells, 10,000 nM antisense oligonucleotide, electroporation, RT-PCR primer probe set RTS5062, relative to untreated control cells): 69%
- % inhibition of SMAD7 mRNA expression (human SMAD7 mRNA [2]; [4]): 0%
- % inhibition of SMAD7 mRNA expression (human SMAD7 mRNA [2]; 2220 nM, Study 2): 43%
- % inhibition of SMAD7 mRNA expression (human SMAD7 mRNA [2]; 6670.0 nM, Study 2): 72%
- % inhibition of SMAD7 mRNA expression (human SMAD7 mRNA [2]; 20000.0 nM, Study 2): 83%
- IC50 (human SMAD7 mRNA [2]): 7000 nM

Substance: 830137 (antisense kA*kT*kG*dA*dA*dA*dG*dT*dA*d[5mC]*dA*dA*dT*k[5mC]*kT*k[5mC]) [compound 830137]
- % Inhibition (human SMAD7 mRNA [1]; [3]): 68%
- % inhibition of SMAD7 mRNA expression (human SMAD7 mRNA [2]; [4]): 19%
- % inhibition of SMAD7 mRNA expression (human SMAD7 mRNA [2]; 2220 nM, Study 2): 46%
- % inhibition of SMAD7 mRNA expression (human SMAD7 mRNA [2]; 6670.0 nM, Study 2): 63%
- % inhibition of SMAD7 mRNA expression (human SMAD7 mRNA [2]; 20000.0 nM, Study 2): 84%
- IC50 (human SMAD7 mRNA [2]): 3000 nM

Substance: 772553 (antisense kT*k[5mC]*kT*dT*dG*dA*dG*d[5mC]*dA*d[5mC]*d[5mC]*dG*dA*kG*kT*kG) [compound 772553]
- % Inhibition (human SMAD7 mRNA [1]; SMAD7 mRNA, Hep3B cells, 10,000 nM antisense oligonucleotide, electroporation, primer probe set RTS5062, relative to untreated control cells): 59%
- % inhibition of SMAD7 mRNA expression (human SMAD7 mRNA [2]; [4]): 36%
- % inhibition of SMAD7 mRNA expression (human SMAD7 mRNA [2]; 2220 nM, Study 2): 45%
- % inhibition of SMAD7 mRNA expression (human SMAD7 mRNA [2]; 6670.0 nM, Study 2): 71%
- % inhibition of SMAD7 mRNA expression (human SMAD7 mRNA [2]; 20000.0 nM, Study 2): 89%
- IC50 (human SMAD7 mRNA [2]): 2000 nM

Substance: 799980 (k[5mC]*k[5mC]*kA*dA*d[5mC]*dG*dG*dT*dT*dG*d[5mC]*d[5mC]*dT*k[5mC]*kA*kT; antisense) [compound 799980]
- % Inhibition (human SMAD7 mRNA [1]; [3]): 78%
- % inhibition of SMAD7 mRNA expression (human SMAD7 mRNA [2]; [4]): 22%
- % inhibition of SMAD7 mRNA expression (human SMAD7 mRNA [2]; 2220 nM, Study 2): 22%
- % inhibition of SMAD7 mRNA expression (human SMAD7 mRNA [2]; 6670.0 nM, Study 2): 51%
- % inhibition of SMAD7 mRNA expression (human SMAD7 mRNA [2]; 20000.0 nM, Study 2): 61%
- IC50 (human SMAD7 mRNA [2]): 13000 nM

Substance: 798686 (antisense kG*kA*kG*dG*dA*dG*dG*d[5mC]*dG*dA*dG*dG*dA*kG*kA*kA) [compound 798686]
- % inhibition of SMAD7 mRNA expression (human SMAD7 mRNA [1]; Hep3B cells, electroporation with 10,000 nM antisense oligonucleotide, primer probe set RTS5062, relative to untreated control cells): 59%
- % inhibition of SMAD7 mRNA expression (human SMAD7 mRNA [2]; [4]): 0%
- % inhibition of SMAD7 mRNA expression (human SMAD7 mRNA [2]; 2220 nM, Study 2): 0%
- % inhibition of SMAD7 mRNA expression (human SMAD7 mRNA [2]; 6670.0 nM, Study 2): 2%
- % inhibition of SMAD7 mRNA expression (human SMAD7 mRNA [2]; 20000.0 nM, Study 2): 33%
- IC50 (human SMAD7 mRNA [2]): 5000 nM
